The test system of experiment [1] is LiaRS response in B. subtilis BSF2470. As to conditions: cited from earlier work. An excerpt:
(§1) To investigate the effect of epilancin 15X on the cell envelope, we employed the two-component LiaRS reporter system in B. subtilis (lipid II cycle interfering antibiotic response regulator and sensor; [Mascher et al., 2004]). Briefly, the LiaRS assay is a disk diffusion assay used to screen for the ability of compounds to induce β-galactosidase expression in engineered B. subtilis BSF2470 ([Mascher et al., 2004]). Molecules that produce a blue ring around the edge of the zone of growth inhibition are believed to interfere with the lipid II cycle ([Hachmann et al., 2009]). Most membrane disrup ...

For experiment [2], the system named is S. carnosus TM300. The experiment is described as follows: Bright field (Airyscan) microscopy. Format: cell-based, Staphylococcus carnosus. As to conditions: S. carnosus TM300, 0.5 MIC.
The test system of experiment [3] is S. carnosus TM300. The experiment is described as follows: Agar diffusion bioactivity assay with lipids in flanking wells. It counts as cell-based, Staphylococcus carnosus. As to conditions: S. carnosus TM300 on BHI agar, overnight. Here is the method:
For agar diffusion antimicrobial activity assays, the autoclaved 1.5% agar was prepared in the appropriate medium and cooled in a 40°C water bath for 15 min. A total of 50 μL overnight culture of the sensitive strain was added to the agar and kept in the water bath. A total of 25 mL seeded agar was poured into a sterile OmniTray (Nunc) and allowed to solidify at room temperature for 30 min. An additional 35 mL of seeded agar was poured over the lower solidified agar layer. A sterile 96-well PCR plate was placed in the molten agar upper layer, and the agar was allowed to solidify at 25°C for 30 min. After sufficient solidification, the 96-well PCR plate was removed. Then 20 μL volume of each peptide was dispensed into the wells. Plates were left at 25°C for 30 min until the wells were dried, and the plates were incubated at 37°C overnight. The antibacterial activity was determined by the presence or absence of growth inhibition.
Figure S5. (A) Zones of growt h inhibition of epilancin 15X a nd nisin A against S. carnosus TM30 0 grown on BHI agar plates. The indicated amounts of antibiotics were placed in the well shown in the center of the zone of inhibition. […]
In general terms: Agar diffusion results depend on both activity and mobility in agar.

The subject of a further experiment is B. subtilis BSF2470. The experiment is described as follows: Membrane permeability study with propidium iodide (flow cytometry). Format: cell-based, Bacillus subtilis. As to conditions: B. subtilis BSF2470, 20 min exposure, 0.5x, 1x, 4x MIC, n = 3. The protocol:
(§2) Cultures of S. carnosus TM300 and B. subtilis BSF2470 were grown to OD600 1.0 and diluted to OD600 0.1 in fresh BHI or LB medium, respectively. The culture was then combined with a final concentration of 25 μM PI (ThermoFisher P3566), 1 mM HEPES, and 1 mM glucose. […] Another two tubes were prepared without antibiotic treatment as controls. The culture was analyzed with a BD Biosciences LSR II flow cytometer for S. carnosus and a BD Biosciences LSRFortessa for B. subtilis using excitation at 488 nm with an argon laser and measurement of emission through a band-pass filter at 695/40 nm. A minimum of 30,000 events were detected for each sample. The experiment was repeated three times, and the mean PI uptake value was determined. The results were calibrated such that the mean PI uptake from the 4x MIC nisin-treated cell culture was set as 100% PI uptake.

Experiment [4] relates to LiaRS response in B. subtilis BSF2470. The experiment is described as follows: LiaRS disk diffusion reporter assay (β-galactosidase, X-Gal). Format: cell-based, Bacillus subtilis. As to conditions: 37°C overnight. Here is the method: The LiaRS response was determined via disk diffusion as described previously ([Mascher et al., 2004]). Briefly, B. subtilis strain BSF2470 was grown in LB supplemented with erythromycin (1 μg/mL) overnight at 37°C with shaking. A total of 20 μL of overnight culture was mixed with 100 μL of 20 mg/mL X-Gal (dissolved in DMF) and 5 mL of 0.7% soft LB agar then poured onto a 1.5% LB agar base. The plates were allowed to cool and dry at room temperature for 20 min. The desired molecule was either spotted on a filter paper disk and placed on top of the agar or directly spotted on the agar. The following molecules were tested: ampicillin, 0.5 μL on filter disk, 1 μL directly spotted, 100 mg/mL; compound 1771/LtaS-IN-1, 4 μL, 20 mM (dissolved in DMSO); epilancin 15X, 4 μL, 5 mM; vancomycin, 1 μL, 100 mg/mL; nisin, 4 μL, 2 mM; bacitracin, 4 μL on filter disk, 5 μL directly spotted, 100 mg/mL; water, 5 μL; magainin 2, 10 μL, 1 mM; melittin, 10 μL, 1 mM. The plate was incubated at 37°C overnight. After overnight incubation, the plate was imaged. Compound 1771 (CS-0114233) was purchased from ChemScene LLC.
as §1, with “[…] The compound 1771, also called LtaS-IN-1, inhibits lipoteichoic acid (LTA) synthesis ([Richter et al., 2013]) and to the best of our knowledge has not been tested in the LiaRS assay.” for “Most membrane disrup ...”

In experiment [5] the test system is S. carnosus TM300. The experiment is described as follows: Membrane permeability study with propidium iodide (flow cytometry). Format: cell-based, Staphylococcus carnosus. As to conditions: S. carnosus TM300, 20 min exposure, 0.5x, 1x, 4x MIC, n = 3. The protocol:
as §2
For orientation: Flow cytometry measures light scatter and fluorescence of single cells or particles in a stream.

Experiment [6] can be described thus: Liposome leakage assay using flow cytometry (HaloTag / AF488 ligand). It counts as biochemical. As to conditions: 1 μM peptide, 37°C, 1 h.
Experiment [7] concerns S. carnosus TM300. The experiment is described as follows: MIC determination in 96-well microtiter plate. Format: cell-based, Staphylococcus carnosus. The note with it: BHI, 37°C, 10^5 CFU/mL, OD600 after 18 h. Here is the method:
(§3) MIC determination was performed in a 96-well microtiter plate as described previously ([Wu et al., 2019]). Sensitive bacterial culture was grown in the appropriate medium (BHI for S. carnosus; LB for B. subtilis) at 37°C overnight. The culture was diluted to 10^5 CFU/mL in medium in each well. Epilancin 15X or its analog was dissolved in water and serially diluted to obtain final concentrations of 20, 10, 5, 2.5, 1.25, 0.625, 0.3125, 0.156, 0.078, 0.039, 0.019, and 0.009 μM. OD600 readings were obtained after 18 h using a Synergy H4 Hybrid Multi-Mode Microplate Reader (BioTeK). Cell-free untreated medium, and untreated cell culture were used as negative controls. The MIC of nisin against B. subtilis BSF2470 was determined following the same methods.

Experiment [8] concerns B. subtilis BSF2470 (1A980). The experiment is described as follows: MIC determination in 96-well microtiter plate. Format: cell-based, Bacillus subtilis. As to conditions: LB, 37°C, 10^5 CFU/mL, OD600 after 18 h. The protocol: as §3

Where two headings read alike, the source gives them in different places. Where no end group is shown, it is not given here.

For polymyxin, the LiaRS response entry in experiment [1] (ref Wex et al., 2021) is recorded as “do not induce a LiaRS response”. With `CC[C@@]1([C@@H]2O[C@@H]([C@H]3O[C@@](O)(CO)[C@H](C)C[C@@H]3C)C[C@@H]2C)CC[C@H]([C@]2(C)CC[C@]3(C[C@H](O)[C@@H](C)[C@@H]([C@@H](C)[C@@H](OC)[C@H](C)C(=O)O)O3)O2)O1` [monensin], the LiaRS response result in [1] (ref Wex et al., 2021) is “do not induce a LiaRS response”. Take “nisin: lantibiotic, lipid II binding pore former, positive control (ITSISLCTPGCKTGALMGCNMKTATCHCSIHVSK; not fully specified (some residues, bridges); cysteine pairing not given here; UniProt P13068 24-57, looked up) [reference compound]”: the “aggregation phenotype of cells (brightfield)” value in the experiment with S. carnosus TM300 [2] was “Aggregation was not observed”. The “antagonism of bioactivity (zone of growth inhibition) by purified S. aureus LTA” value in the experiment on S. carnosus TM300 [3] is on record as “not”. In addition, the “PI uptake (membrane disruption)” value with B. subtilis BSF2470 and in the experiment with S. carnosus TM300 [5] was “more substantial” throughout. Moreover, the “LiaRS response (blue ring at the edge of the zone of inhibition)” value in experiment [4] is recorded as “induce a LiaRS response”. Further, the “fluorescence signal (pore formation)” value in [6] (POPC-cholesterol liposomes with 0.1% lipid II) is “substantial increase in fluorescence signal”. Further, the “fluorescence signal (pore formation) compared to buffer control” value in experiment [6] (POPC-cholesterol liposomes without lipid II) is on record as “no increase in fluorescence signal”. In addition, the values for the MIC (in the experiment with S. carnosus TM300 [7]; in [8]) were 0.5 µM and 0.625 µM, respectively. For the compound colistin, in experiment [1] (ref Wex et al., 2021), the LiaRS response result was “do not induce a LiaRS response”. As to `O=C(COC(=O)Cc1coc2ccc3ccccc3c12)Nc1nnc(-c2ccccc2)o1` [LtaS-IN-1], the “LiaRS response (blue ring at the edge of the zone of inhibition)” value in [4] was “did not induce a blue zone”. Turning to Bacitracin, the “LiaRS response (blue ring at the edge of the zone of inhibition)” value in experiment [4] was “induce a LiaRS response”. Same read-out and setting: the value for melittin was “did not induce a LiaRS response”; that for `CN[C@H](CC(C)C)C(=O)N[C@H]1C(=O)N[C@@H](CC(N)=O)C(=O)N[C@H]2C(=O)N[C@H]3C(=O)N[C@H](C(=O)N[C@H](C(=O)O)c4cc(O)cc(O)c4-c4cc3ccc4O)[C@H](O)c3ccc(c(Cl)c3)Oc3cc2cc(c3O[C@@H]2O[C@H](CO)[C@@H](O)[C@H](O)[C@H]2O[C@H]2C[C@](C)(N)[C@H](O)[C@H](C)O2)Oc2ccc(cc2Cl)[C@H]1O` [vancomycin] was “induce a LiaRS response”. On the same count and under the same terms, the value for `CC1(C)S[C@@H]2[C@H](NC(=O)[C@H](N)c3ccccc3)C(=O)N2[C@H]1C(=O)O` [ampicillin] was “did not induce a LiaRS response”; that for magainin 2 was “did not induce a LiaRS response”. tunicamycin: the LiaRS response result in [1] (B. subtilis, ref Mascher et al., 2004) was “positive LiaRS response”.

The values are drawn from publication PMC10652874, “Investigation into the mechanism of action of the antimicrobial peptide epilancin 15X” (Frontiers in Microbiology, 2023).
